The test system of this assay is cyt C. Description: Mitochondrial cyt C release and nuclear morphology, immunofluorescence. It counts as cell-based, human. As to conditions: DU145, 20 and 40 mM, 48 h.

We go through one compound from patent US20110071094A1, “(D)-ALLOSE INDUCING PROGRAMMED CELL DEATH IN HORMONE REFRACTORY PROSTATE CANCER LINES” (INDUSTRY-ACADEMIC COOPERATION FOUDATION, GYEONGSANG …, priority 2008, published 2011).

Method: The in situ analysis of cyt C was carried out by immunofluorescence technique. […] Cyt C was detected by using mouse anti-cyt C antibody and rabbit anti-mouse FITC-labeled antibody (1:250 and 1:200, respectively; Santa Cruz Biotechnology, Santa Cruz, Calif., USA). DU145 cell line treated with FITC-labeled secondary antibody alone was considered as negative control. Subsequently, chromatin was stained with PI (1 mg/ml in PBS) for 20 min in dark and slides were mounted with Prolong Antifade reagent (Molecular Probes, Eugene, Oreg., USA). Cyt C (green) and chromatin (red) staining patterns were acquired by use of a confocal laser scanning microscope (Fluoview FV 1000, Olympus, Japan).

Consider `O=C[C@H](O)[C@H](O)[C@H](O)[C@H](O)CO` [D-allose], for which the “cyt C release from mitochondria and chromatin condensation” value is “release of cyt C from mitochondria into cytosol and chromatin condensation”.
